Measurements: BindingDB's records for patent US8497376 (Janssen Pharmaceutica, 2013)

Molecular target: Macrophage colony-stimulating factor 1 receptor (Homo sapiens, UniProt P07333)
Assay: Fluorescence Polarization Competition Assay
Conditions: pH 7.5
Text: An autophosphorylation, fluroescence polarization competition immunoassay was used to determine the potency for c-fms inhibition.

Sequence of Macrophage colony-stimulating factor 1 receptor (P07333 whole entry): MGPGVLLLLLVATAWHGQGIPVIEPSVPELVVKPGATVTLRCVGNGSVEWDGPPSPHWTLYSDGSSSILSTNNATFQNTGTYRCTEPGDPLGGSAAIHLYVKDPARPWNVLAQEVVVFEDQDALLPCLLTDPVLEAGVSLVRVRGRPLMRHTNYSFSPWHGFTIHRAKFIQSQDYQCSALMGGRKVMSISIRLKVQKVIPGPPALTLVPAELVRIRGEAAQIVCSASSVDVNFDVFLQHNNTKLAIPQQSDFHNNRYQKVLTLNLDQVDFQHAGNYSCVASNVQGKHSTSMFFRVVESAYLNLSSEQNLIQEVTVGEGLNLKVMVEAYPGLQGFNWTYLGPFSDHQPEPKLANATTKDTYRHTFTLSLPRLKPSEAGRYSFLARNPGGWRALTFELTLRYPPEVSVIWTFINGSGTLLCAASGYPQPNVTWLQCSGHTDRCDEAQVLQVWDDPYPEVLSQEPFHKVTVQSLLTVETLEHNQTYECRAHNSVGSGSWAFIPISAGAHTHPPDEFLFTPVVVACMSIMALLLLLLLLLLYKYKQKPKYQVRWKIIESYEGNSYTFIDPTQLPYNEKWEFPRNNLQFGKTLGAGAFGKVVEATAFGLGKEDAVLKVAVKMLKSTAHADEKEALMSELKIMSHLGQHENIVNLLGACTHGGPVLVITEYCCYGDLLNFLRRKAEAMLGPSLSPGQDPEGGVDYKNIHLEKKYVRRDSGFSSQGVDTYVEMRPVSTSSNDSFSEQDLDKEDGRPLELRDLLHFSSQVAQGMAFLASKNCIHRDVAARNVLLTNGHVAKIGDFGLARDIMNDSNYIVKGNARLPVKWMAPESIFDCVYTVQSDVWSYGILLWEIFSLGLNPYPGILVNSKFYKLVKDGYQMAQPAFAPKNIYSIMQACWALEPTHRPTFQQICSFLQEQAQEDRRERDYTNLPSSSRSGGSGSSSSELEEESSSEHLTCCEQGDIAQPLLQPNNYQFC

For `CC1(C)CC=C(c2cc([C@]3(O)C[C@@]4(CO)C=C[C@@](CO)(C3)O4)ccc2NC(=O)c2ncc(C#N)[nH]2)CC1` [US8497376, 2], the IC50 was 0.43 nM.
